Assay results as given in ChEMBL document CHEMBL1201862, “PubChem BioAssay data set” (2004).
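Results reflect a 48-hour exposure of cells in 96-well plates to compound at five concentrations. Here, GI50 denotes the concentration required for 50% inhibition of growth.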 The source made the active and inactive calls. Cut-off read from the data, not from the text of the source: active = GI50 up to about 1.1 µM and inactive = higher.

Key:
Experiment in all cases: growth of human tumour cells (NCI), 48 h
HOP-92 = system: HOP-92
Malme-3M = system: Malme-3M
DMS-114 = system: DMS-114
SR = system: SR
TK-10 = system: TK-10
XF498 = system: XF498
M14 = system: M14
KM-20L2 = system: KM-20L2
ACHN = system: ACHN
CAKI-1 = system: CAKI-1
HCC 2998 = system: HCC 2998
T47D = system: T47D
MDA-MB-231 = system: MDA-MB-231
MDA-MB-435 = system: MDA-MB-435
MCF7 = system: MCF7
DU-145 = system: DU-145
NCI-H226 = system: NCI-H226
MDA-N = system: MDA-N
DMS-273 = system: DMS-273
NCI/ADR-RES = system: NCI/ADR-RES

| SMILES | GI50 (HOP-92) | GI50 (Malme-3M) | GI50 (DMS-114) | GI50 (SR) | GI50 (TK-10) | GI50 (XF498) | GI50 (M14) | GI50 (KM-20L2) | GI50 (ACHN) | GI50 (CAKI-1) | GI50 (HCC 2998) | GI50 (T47D) | GI50 (MDA-MB-231) | GI50 (MDA-MB-435) | GI50 (MCF7) | GI50 (DU-145) | GI50 (NCI-H226) | GI50 (MDA-N) | GI50 (DMS-273) | GI50 (NCI/ADR-RES) |
| --- | --- | --- | --- | --- | --- | --- | --- | --- | --- | --- | --- | --- | --- | --- | --- | --- | --- | --- | --- | --- |
| O=C(NN1C(=O)C(Cl)C1c1ccc([N+](=O)[O-])cc1)c1ccccc1O (configuration not stated) | > 100 µM (inactive) | 43 µM (inactive) | > 100 µM (inactive) | > 100 µM (inactive) | > 100 µM (inactive) | 93.1 µM (inactive) | > 100 µM (inactive) | > 100 µM (inactive) | – | – | – | – | – | – | – | – | – | – | – | – |
| Nc1nc2cc(COc3ccc(C(=O)O)cc3)ccc2nc1-c1ccccc1 | > 10 µM (inactive) | – | – | > 10 µM (inactive) | > 10 µM (inactive) | – | > 10 µM (inactive) | – | > 10 µM (inactive) | > 10 µM (inactive) | > 10 µM (inactive) | > 10 µM (inactive) | > 10 µM (inactive) | > 10 µM (inactive) | > 10 µM (inactive) | > 10 µM (inactive) | > 10 µM (inactive) | > 10 µM (inactive) | – | – |
| CCOC(=O)C1=C(C)N(NC(N)=O)C2(O)CCCC(=O)C12C (configuration not stated) | > 100 µM (inactive) | > 100 µM (inactive) | > 100 µM (inactive) | > 10 µM (inactive) | > 100 µM (inactive) | > 100 µM (inactive) | > 100 µM (inactive) | > 100 µM (inactive) | > 100 µM (inactive) | > 100 µM (inactive) | > 100 µM (inactive) | – | – | – | – | – | > 100 µM (inactive) | – | > 100 µM (inactive) | – |
| CCOC(=O)C1=C(C)N(c2ccc(OC)cc2)C2(O)C=CC(O)=C3C(=O)c4ccccc4C(=O)C312 (configuration not stated) | 2.25 µM (inactive) | < 0.01 µM (active) | – | – | 11 µM (inactive) | – | 9.75 µM (inactive) | – | 14.3 µM (inactive) | 8.38 µM (inactive) | – | 12.5 µM (inactive) | 14.3 µM (inactive) | 4.2 µM (inactive) | 6.03 µM (inactive) | 14.4 µM (inactive) | – | 8.61 µM (inactive) | – | 3.01 µM (inactive) |
| S=CN1CCCCC1 | – | > 100 µM (inactive) | – | > 100 µM (inactive) | > 100 µM (inactive) | – | > 100 µM (inactive) | – | > 100 µM (inactive) | > 100 µM (inactive) | > 100 µM (inactive) | > 100 µM (inactive) | > 100 µM (inactive) | > 100 µM (inactive) | > 100 µM (inactive) | > 100 µM (inactive) | > 100 µM (inactive) | > 100 µM (inactive) | – | > 100 µM (inactive) |
| CC1(c2sccc2Cl)CC(c2sccc2Cl)=C(C#N)C(=C(C#N)C#N)N1 (configuration not stated) | – | 17.6 µM (inactive) | – | – | 17.2 µM (inactive) | – | 18.6 µM (inactive) | – | 18.5 µM (inactive) | 20.2 µM (inactive) | 14.5 µM (inactive) | 14.2 µM (inactive) | 21.9 µM (inactive) | 22 µM (inactive) | 22.8 µM (inactive) | 16 µM (inactive) | – | 17.3 µM (inactive) | – | 22.8 µM (inactive) |
| c1ccc(C(c2ccccc2)[P+](c2ccccc2)(c2ccccc2)c2ccccc2)cc1 | 0.543 µM (active) | 0.726 µM (active) | 0.324 µM (active) | – | – | 0.214 µM (active) | – | 0.374 µM (active) | – | 2.69 µM (inactive) | 0.365 µM (active) | – | – | – | 0.449 µM (active) | – | 0.684 µM (active) | – | 0.349 µM (active) | 35.2 µM (inactive) |
